# Measured values reported in patent publication US8575150B2, “Triazole derivatives for treatment of Alzheimer's disease” (Merck Sharp & Dohme Corp., priority 2008, dated 2013).
# Molecular target: T1, γ-secretase, Aβ(1-42) production in SH-SY5Y neuroblastoma cells overexpressing SPA4CT (Homo sapiens, UniProt P49768)
# T1 construct: Human SH-SY5Y neuroblastoma cells overexpressing the direct γ-secretase substrate SPA4CT; endogenous in cells; host or cells: human SH-SY5Y neuroblastoma cells, transfected only with the substrate SPA4CT and induced with sodium butyrate
# Experiment: Cell-based γ-secretase assay, Aβ(42) detection
# Details: overnight incubation
# Protocol: Cell-Based γ-Secretase Assay
# Human SH-SY5Y neuroblastoma cells overexpressing the direct γ-secretase substrate SPA4CT were induced with sodium butyrate (10 mM) for 4 hours prior to plating. Cells were plated at 35,000 cells/well/100 μl in 96-well plates in phenol red-free MEM/10% FBS, 50 mM HEPES, 1% Glutamine and incubated for 2 hrs at 37° C., 5% CO2.
# Appropriate vehicle and inhibitor controls were used to determine the window of the assay.
# After incubation overnight at 37° C., 5% CO2, 25 μl and […] were transferred into a standard Meso avidin-coated 96-well plate for detection of Aβ(40) and Aβ(42) peptides, respectively. 25 μl Meso Assay buffer (PBS, 2% BSA, 0.2% Tween-20) was added to the Aβ(40) wells followed by the addition of 25 μl of the respective antibody premixes to the wells:
# Aβ(42) premix: 1 μg/mlruthenylated G2-11 antibody, 4 μg/ml; and biotinylated 4G8 antibody diluted in Origen buffer
# (Biotinylated 4G8 antibody supplied by Signet Pathology Ltd; G2-10 and G2-11 antibodies supplied by Chemicon)
# After overnight incubation of the assay plates on a shaker at 4° C., the Meso Scale Sector 6000 Imager was calibrated according to the manufacturer's instructions. After washing the plates 3 times with 150 μl of PBS per well, 150 μl Meso Scale Discovery read buffer was added to each well and the plates were read on the Sector 6000 Imager according to the manufacturer's instructions.
# The total signal and the background were defined by the corresponding Me2SO and inhibitor controls.
row,IC50 [nM],Compound
1,83,"O=C1C(n2cc(-c3ccc(-c4ccnnc4)cc3)nn2)CCc2c(F)cccc2N1CC(F)(F)F (racemic) [Example 123, (R) and (S)-6-fluoro-3-[4-(4-pyridazin-4-ylphenyl)-1H-1,2,3-triazol-1-yl]-1-(2,2,2-trifluoroethyl)-1,3,4,5-tetrahydro-2H-1-benzazepin-2-one]"
2,537,"O=C1C(n2cc(-c3ccc(Oc4cccnc4)cc3)nn2)CCc2c(F)cccc2N1CC(F)(F)F (stereo not drawn) [Example 61, 6-fluoro-3-{4-[4-(pyridin-3-yloxy)phenyl]-1H-1,2,3-triazol-1-yl}-1-(2,2,2-trifluoroethyl)-1,3,4,5-tetrahydro-2H-1-benzazepin-2-one]"
3,226,"COc1cc(-c2cn(C3CCc4c(F)cccc4N(CC(F)(F)F)C3=O)nn2)ccc1Nc1cccnc1 (stereo not drawn) [Example 92, 6-fluoro-3-{4-[3-methoxy-4-(pyridin-3-ylamino)phenyl]-1H-1,2,3-triazol-1-yl}-1-(2,2,2-trifluoroethyl)-1,3,4,5-tetrahydro-2H-1-benzazepin-2-one]"

# Further lines, the compound ahead of its results:
row,Compound,IC50 [nM]
1,"COc1cc(-c2nc(C)no2)ccc1-c1cn(C2CCc3c(F)cccc3N(CC(F)(F)F)C2=O)nn1 (stereo not drawn) [Example 57, 6-fluoro-3-{4-[2-methoxy-4-(3-methyl-1,2,4-oxadiazol-5-yl)phenyl]-1H-1,2,3-triazol-1-yl}-1-(2,2,2-trifluoroethyl)-1,3,4,5-tetrahydro-2H-1-benzazepin-2-one]",431
2,"O=C1C(n2cc(-c3ncc(-c4ccncc4)cn3)nn2)CCc2c(F)cccc2N1CC(F)(F)F (stereo not drawn) [Example 2, 6-fluoro-3-{4-[5-(pyridin-4-yl)pyrimidin-2-yl]-1H-1,2,3-triazol-1-yl}-1-(2,2,2-trifluoroethyl)-1,3,4,5-tetrahydro-2H-1-benzazepin-2-one]",1330
3,"COc1cc(-c2cn(C3CCc4ccccc4N(CC(F)(F)F)C3=O)nn2)ccc1-c1ccncc1 (stereo not drawn) [Example 1, 3-[4-(3-methoxy-4-pyridin-4-ylphenyl)-1H-1,2,3-triazol-1-yl]-1-(2,2,2-trifluoroethyl)-1,3,4,5-tetrahydro-2H-1-benzazepin-2-one]",80
